Measured values published in patent publication US20040259888A1, “Novel 4-aminofuropyrimidines and the use thereof” (priority 2001, published 2004).

What was measured:
[1] = molecular target: human recombinant adenosine kinase (Homo sapiens, UniProt P55263); experiment: Inhibition of human recombinant adenosine kinase; format: biochemical; settings: 14C-adenosine substrate, 0.5 mM ATP, 37° C., 20 min; read-out: Adenosine kinase inhibition (in vitro): IC50
Experimental: 1. Inhibition of Human Recombinant Adenosine Kinase
The test is carried out on 96-well filter plates (DE81 from Millipore, DEAE cellulose, 0.65 μm). The test buffer contains 50 mM tris/HCl pH 8.0, 10 mM DTT and 1 mM MgCl2; immediately prior to the start of the test, ATP is added in a concentration of 0.5 mM. The substrate used is ^14C-adenosine, diluted 1:30 in cold adenosine; the final concentration of the cold adenosine is 4×10^−6 M; the amount of ^14C-adenosine is chosen such that, at a volume of 10 μl, an activity of 0.5 kBq (=30 000 decays per minute) is present per well of the filter plate. The substances to be tested are dissolved in DMSO in a concentration of 10^−2 M. Further dilutions are carried out using water.
When carrying out the test, initially 80 μl of buffer are initially charged into each well. The test substances, the substrate adenosine and finally human recombinant adenosine kinase (Mathews J. J. et al., Biochemistry (1998) 37, 15607-15620) in test buffer pH 7.4 are added successively, in each case in a volume of 10 μl. The adenosine kinase concentration is chosen such that at most 30% of the total amount of adenosine are converted. The plates are then incubated at 37° C. for 20 min. The reaction is then stopped by filtration with suction. The filters are washed in each case once with ice-cold wash buffer (15 mM Tris/HCl pH 8.5) and ethanol. The plate is dried at 37° C. (about 15 min). 50 μl of scintillation solution are then pipetted into each well, and the ^14C activity is determined in a MicroBeta counter.
The inhibition of the enzyme activity by the substances tested is determined after substration of the blank value (no added enzyme) in comparison to the uninhibited enzyme (100% value).

Sequence of human recombinant adenosine kinase (P55263 1-345 isoform P55263-2): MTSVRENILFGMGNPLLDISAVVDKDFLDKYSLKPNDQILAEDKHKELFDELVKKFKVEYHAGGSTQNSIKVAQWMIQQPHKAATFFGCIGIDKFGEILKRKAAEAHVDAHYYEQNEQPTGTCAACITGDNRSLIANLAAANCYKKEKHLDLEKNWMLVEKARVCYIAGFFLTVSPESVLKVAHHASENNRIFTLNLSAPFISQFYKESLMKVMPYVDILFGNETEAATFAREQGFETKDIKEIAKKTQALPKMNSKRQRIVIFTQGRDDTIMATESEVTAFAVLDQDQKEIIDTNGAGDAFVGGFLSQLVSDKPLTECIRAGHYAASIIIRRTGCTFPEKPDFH

IC50 [1] [nM] | melting point [°C] | Structure (SMILES)
20 | 219 to 221 | CN1CCN(c2ncnc3oc(-c4ccc(NCCO)nc4)c(-c4ccccc4)c23)CC1 [Example 37]
30 | – | OCCNc1ccc(-c2oc3ncnc(N4CCC(O)CC4)c3c2-c2ccc(F)cc2)cn1 [Example 193, 1-(5-(4-Fluorophenyl)-6-{6-[(2-hydroxyethyl)amino]-3-pyridinyl]furo[2,3-d]pyrimidin-4-yl)-4-piperidinol]
15 | – | CCN1CCN(c2ccc(-c3oc4ncnc(N5CCN(CC)CC5)c4c3-c3ccc(F)cc3)cn2)CC1 [Example 326]

Further lines, the compound ahead of its results:

Structure (SMILES) | IC50 [1] [nM] | melting point [°C]
CN1CCN(c2ncnc3oc(-c4ccc(N)cc4)c(-c4ccc(F)cc4)c23)CC1 [Example 4, 4-[5-(4-Fluorophenyl)-4-(4-methyl-1-piperazinyl)furo[2,3-d]pyrimidin-6-yl]aniline] | 50 | 214 to 215
CN1CCN(c2ncnc3oc(-c4ccc(N)nc4)c(-c4ccccc4)c23)CC1 [Example 8, 5-[4-(4-Methyl-1-piperazinyl)-5-phenylfuro[2,3-d]pyrimidin-6-yl]-2-pyridineamine] | 80 | 229 to 231
CN(C)CC(=O)Nc1ccc(-c2oc3ncnc(N4CCOCC4)c3c2-c2ccc(F)cc2)cc1 [Example 35] | 20 | 228 to 235
